Assay results reported in PMC13159116, “Affinity‐Based Interactome Mapping of Inositol Pyrophosphates Reveals 4/6‐PP‐InsP5‐Binding Proteins in Plants” (Advanced Science, 2026).

Target: T1, AtFHA2 (Arabidopsis thaliana, UniProt Q9SFV2)
T1 construct: gene FHA2; recombinant AtFHA2 (AT3G07220.1)
T1 sequence (Q9SFV2 2-320): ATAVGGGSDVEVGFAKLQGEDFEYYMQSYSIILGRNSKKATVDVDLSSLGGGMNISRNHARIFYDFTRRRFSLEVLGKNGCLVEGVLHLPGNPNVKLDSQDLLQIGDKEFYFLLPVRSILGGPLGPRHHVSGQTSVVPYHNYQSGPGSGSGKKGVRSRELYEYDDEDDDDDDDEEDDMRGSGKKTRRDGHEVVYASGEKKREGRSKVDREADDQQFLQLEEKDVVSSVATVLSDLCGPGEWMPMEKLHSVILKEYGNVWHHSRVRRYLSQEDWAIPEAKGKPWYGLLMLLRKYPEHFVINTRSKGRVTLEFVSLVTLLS
Experiment: isothermal titration calorimetry (ITC) with recombinant protein
Format: binding

Kd [µM]	SMILES
4.9 ± 2.24	O=P(O)(O)O[C@H]1[C@H](OP(=O)(O)O)[C@@H](OP(=O)(O)O)[C@H](OP(=O)(O)OP(=O)(O)O)[C@@H](OP(=O)(O)O)[C@H]1OP(=O)(O)O [compound 4, 4-PP-InsP5]
> 100	O=P(O)(O)O[C@H]1[C@H](OP(=O)(O)O)[C@@H](OP(=O)(O)O)[C@H](OP(=O)(O)O)[C@@H](OP(=O)(O)O)[C@H]1OP(=O)(O)O [compound 6, InsP6]
